Here are results for 19 molecules from patent US20260200920A1, “SUBSTITUTED AMINOPYRIDINE COMPOUNDS FOR USE AS AKT1 INHIBITORS” (Atavistik Bio, Inc., priority 2023, published 2026).

The target of test [1] is T1, human recombinant kinase full-length AKT1 E17K (Homo sapiens, UniProt P31749, E17K).
T1 construct: Purified human recombinant kinase full-length AKT1 E17K was expressed in insect cells; made in house; host or cells: insect cells
Nature of the test: AKT1 E17K kinase assay (TR-FRET, Lance). To be noted: 0.6 nM AKT1 E17K, 50 nM Ulight-CREBtide, either 50 μM ATP or 2 mM ATP, 60 min at RT. It is filed as biochemical. On the procedure:
AKT1 E17K kinase assay: Inhibitory effects of compounds on AKT1 E17K were undertaken in a 10-pt dose response kinase activity assay measuring phospho-peptide product formation based on TR-FRET signal as described in the following paragraph.
(§1) Purified human recombinant kinase full-length AKT1 E17K was expressed in insect cells and activated in vitro by PDPK1. Ulight™-CREBtide (PerkinElmer, catalog number TRF0107) was used as the peptide substrate. The reaction buffer consisted of 50 mM HEPES pH 7.5, 10 mM MgCl2, 0.01% Triton X-100, 0.01% BSA, 2 mM DTT, 0.6 nM AKT1 E17K, 50 nM Ulight™-CREBtide and either 50 μM ATP or 2 mM ATP. The compound solution was prepared as 10 mM DMSO stock. For the assay, a 1.3 serial dilution 10-pt dose response of test compounds, in duplicate, for each concentration were dispensed into a 384-well plate (Corning, catalog number 4513). Final DMSO concentration in the assay was 1%. The enzyme mixture (5 μL, 1.2 nM) were added and the mixture was incubated for 15 min at RT prior to the start of the kinase reaction by the addition of 5 μL substrate mixture (100 nM Ulight™-CREBtide). The reaction was stopped after 60 min of incubation at RT by the addition of 10 μL of Detection Mix (PerkinElmer, #CR97-100) consisting of Europium-anti-phospho-CREB (Ser133) (Perkin Elmer, catalog number TRF0200). Incubation with the detection mix for a further 60 min allowed binding of antibody to the phospho-Ulight™ CREBtide. The fluorescence emissions at 620 nm and 665 nm after excitation at 350 nm was measured using Envision reader. The ratio of the emissions at 665 nm and at 620 nm provided the measure for the amount of phosphorylated CREBtide product of AKT1 E17K kinase activity. To determine the IC50 values, the data was normalized (enzyme reaction without inhibitor=0% inhibition, all other assay components but no enzyme=100% inhibition) and IC50 values were calculated by a 4-parameter fit using an in-house developed protocol.
Table 9 assigns each compound a code for potency in the AKT1 E 17K kinase assay: A, B, or C. According to the code, A represents an IC50 value <500 nM; B represents an IC50 value from ≥500 nM to <2000 nM; and C represents an IC50 value ≥2000 nM.

In test [2] the target is T2, human recombinant kinase full-length wildtype AKT1 (Homo sapiens, UniProt P31749).
T2 construct: Purified human recombinant kinase full-length wildtype AKT1 was expressed in insect cells; made in house; host or cells: insect cells
Nature of the test: AKT1 kinase assay (wildtype, TR-FRET, Lance). It is filed as biochemical. The following applies: 0.6 nM wildtype AKT1, 50 nM Ulight-CREBtide, either 50 μM ATP or 2 mM ATP, 60 min at RT. How it is done: AKT1 kinase assay: Inhibitory effects of compounds on wildtype AKT1 were undertaken in a 10-pt dose response kinase activity assay measuring phospho-peptide product formation based on TR-FRET signal as described in the following paragraph.
as §1, with “full-length wildtype” for “full-length”, “AKT1” for “AKT1 E17K”, “AKT1,50” for “AKT1 E17K, 50”, “1:3” for “1.3”
The symbol +++ represents an IC50 value <20 μM; the symbol ++ represents an IC50 value from ≥20 μM to 80 μM.
Background: Time-resolved FRET reads energy transfer from a long-lived donor to a nearby acceptor.

T1 sequence (P31749 whole entry E17K): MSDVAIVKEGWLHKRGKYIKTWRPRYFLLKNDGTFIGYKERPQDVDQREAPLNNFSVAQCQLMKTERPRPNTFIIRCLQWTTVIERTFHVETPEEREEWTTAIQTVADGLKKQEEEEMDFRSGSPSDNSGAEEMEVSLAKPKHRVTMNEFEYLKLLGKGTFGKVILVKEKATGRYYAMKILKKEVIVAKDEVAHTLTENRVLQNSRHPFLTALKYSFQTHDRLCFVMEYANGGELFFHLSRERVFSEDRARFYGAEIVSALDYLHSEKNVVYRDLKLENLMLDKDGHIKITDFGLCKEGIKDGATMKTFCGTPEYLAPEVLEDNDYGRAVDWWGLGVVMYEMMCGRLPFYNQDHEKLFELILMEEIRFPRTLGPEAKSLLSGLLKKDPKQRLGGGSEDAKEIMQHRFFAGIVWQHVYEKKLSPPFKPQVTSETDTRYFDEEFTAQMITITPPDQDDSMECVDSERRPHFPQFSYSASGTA
T2 sequence (P31749 whole entry): as the sequence (P31749 whole entry E17K) above, with K17E counted along it

The IC50 is the concentration needed to halve the response being measured. As for `CC(C)(N[C@@H]1CC[C@H](C(=O)O)C1)c1ccc(-n2c(-c3cccnc3N)nc3ccc(-c4ccccc4)nc32)cc1` [Compound I-88, (1S,3R)-3-((2-(4-(2-(2-aminopyridin-3-yl)-5-phenyl-3H-imidazo[4,5-b]pyridin-3-yl)phenyl)propan-2-yl)amino)cyclopentane-1-carboxylic acid], the figures for the IC50 in test [1] and in test [2] were not below 2000 nM and less than 20000 nM, respectively.

Take `Cc1cc(NC(=O)C2CC3(CC(C(=O)O)C3)C2)ccc1-n1c(-c2cccnc2N)nc2ccc(-c3ccccc3)nc21` (centres unmarked) [Compound I-100, 6-((4-(2-(2-aminopyridin-3-yl)-5-phenyl-3H-imidazo[4,5-b]pyridin-3-yl)-3-methylphenyl)carbamoyl)spiro[3.3]heptane-2-carboxylic acid]: the IC50 in test [1] was 500 to 2000 nM; in test [2] it was less than 20000 nM.

On to `Nc1ncccc1-c1nc2ccc(-c3ccccc3F)nc2n1-c1ccc(C2CN(CC3CC4CC(C(=O)O)CC4C3)C2)cc1` (centres unmarked) [Compound I-202], for which the IC50 is less than 500 nM in test [1] and less than 20000 nM in test [2].

For `Nc1ncccc1-c1nc2ccc(-c3ccccc3)nc2n1-c1ccc(C2CN(C[C@H]3CC[C@H](C(=O)O)CC3)C2)cc1` [Compound I-57, (1r,4r)-4-((3-(4-(2-(2-aminopyridin-3-yl)-5-phenyl-3H-imidazo[4,5-b]pyridin-3-yl)phenyl)azetidin-1-yl)methyl)cyclohexane-1-carboxylic acid], the IC50 in test [1] is less than 500 nM; in test [2], less than 20000 nM.

Turning to `CC(C)N(Cc1ccc(-n2c(-c3cccnc3N)nc3ccc(-c4ccccc4)nc32)cc1)[C@H]1CC[C@H](C(=O)O)CC1` [Compound I-168], the IC50 in test [1] is not below 2000 nM; in test [2], less than 20000 nM.

On to `Cc1nc(NC(=O)[C@H]2CC[C@H](C(=O)O)CC2)ccc1-n1c(-c2cccnc2N)nc2ccc(-c3ccccc3)nc21` [Compound I-118, (1r,4r)-4-((5-(2-(2-aminopyridin-3-yl)-5-phenyl-3H-imidazo[4,5-b]pyridin-3-yl)-6-methylpyridin-2-yl)carbamoyl)cyclohexane-1-carboxylic acid], for which the values for the IC50 in test [1] and in test [2] were less than 500 nM and less than 20000 nM, respectively.

For the molecule `CC1(C)CC(C(=O)O)CCN1Cc1ccc(-n2c(-c3cccnc3N)nc3ccc(-c4ccccc4)nc32)cc1` (centres unmarked) [Compound I-99, 1-(4-(2-(2-aminopyridin-3-yl)-5-phenyl-3H-imidazo[4,5-b]pyridin-3-yl)benzyl)-2,2-dimethylpiperidine-4-carboxylic acid], the IC50 in test [1] is not below 2000 nM; in test [2], less than 20000 nM.

For `Nc1ncccc1-c1nc2ccc(-c3ccccc3)nc2n1-c1ccc(NC(=O)C2CCC(C(=O)O)CC2)cc1F` (centres unmarked) [Compound I-5, 4-((4-(2-(2-aminopyridin-3-yl)-5-phenyl-3H-imidazo[4,5-b]pyridin-3-yl)-3-fluorophenyl)carbamoyl)cyclohexane-1-carboxylic acid], the values for the IC50 in test [1] and in test [2] were 500 to 2000 nM and less than 20000 nM, respectively.

With `NC(=O)N1CCC(C(=O)Nc2ccc(-n3c(-c4cccnc4N)nc4ccc(-c5ccccc5)nc43)cn2)CC1` [Compound I-122, N^4-(5-(2-(2-aminopyridin-3-yl)-5-phenyl-31-imidazo[4,5-b]pyridin-3-yl)pyridin-2-yl)piperidine-1,4-dicarboxamide], the IC50 was less than 500 nM in test [1] and less than 20000 nM in test [2].

For the molecule `Cc1nc(-n2c(-c3cccnc3N)nc3ccc(-c4ccccc4)nc32)ccc1NC(=O)C1CC2(CC(C(=O)O)C2)C1` (centres unmarked) [Compound I-126, 6-((6-(2-(2-aminopyridin-3-yl)-5-phenyl-3H-imidazo[4,5-b]pyridin-3-yl)-2-methylpyridin-3-yl)carbamoyl)spiro[3.3]heptane-2-carboxylic acid], the IC50 was not below 2000 nM in test [1] and less than 20000 nM in test [2].

For `Nc1ncccc1-c1nc2ccc(-c3ccccc3)nc2n1-c1ccc(CN[C@H]2CC[C@H](C(=O)O)CC2)cc1` [Compound I-90, (1r,4r)-4-((4-(2-(2-aminopyridin-3-yl)-5-phenyl-3H-imidazo[4,5-b]pyridin-3-yl)benzyl)amino)cyclohexane-1-carboxylic acid], the IC50 was less than 500 nM in test [1] and less than 20000 nM in test [2].

As for `CC1(C)CN(C(=O)c2ccc(-n3c(-c4cccnc4N)nc4ccc(-c5ccccc5)nc43)cn2)CCC1C(=O)O` (centres unmarked) [Compound I-24, 1-(5-(2-(2-aminopyridin-3-yl)-5-phenyl-3H-imidazo[4,5-b]pyridin-3-yl)picolinoyl)-3,3-dimethylpiperidine-4-carboxylic acid], the IC50 in test [1] is not below 2000 nM; in test [2], less than 20000 nM.

`Cc1nc(NCC2CC3(C2)CC(C(=O)O)C3)ccc1-n1c(-c2cccnc2N)nc2ccc(-c3ccccc3)nc21` (centres unmarked) [Compound I-225]: the IC50 in test [1] was less than 500 nM; in test [2], less than 20000 nM.

Turning to `Cc1nc(N[C@H]2CC[C@@H](C(=O)O)CC2)ccc1-n1c(-c2cccnc2N)nc2ccc(-c3ccccc3)nc21` [Compound I-134, (1s,4s)-4-((5-(2-(2-aminopyridin-3-yl)-5-phenyl-3H-imidazo[4,5-b]pyridin-3-yl)-6-methylpyridin-2-yl)amino)cyclohexane-1-carboxylic acid], the IC50 in test [1] was 500 to 2000 nM; in test [2] it was less than 20000 nM.

For the molecule `CN(Cc1ccc(-n2c(-c3cccnc3N)nc3ccc(-c4ccccc4)nc32)c(F)c1)[C@H]1CC[C@H](C(=O)O)CC1` [Compound I-164], the figures for the IC50 in test [1] and in test [2] were 500 to 2000 nM and less than 20000 nM, respectively.

With `Cc1cc(C2CN(C[C@H]3CC[C@@H](C(=O)O)CC3)C2)ccc1-n1c(-c2cccnc2N)nc2ccc(-c3ccccc3)cc21` [Compound I-222], the figures for the IC50 in test [1] and in test [2] were 500 to 2000 nM and less than 20000 nM, respectively.

As for `Cc1nc(NC(=O)N2CCC(C(=O)O)CC2)ccc1-n1c(-c2cccnc2N)nc2ccc(-c3ccccc3)nc21` [Compound I-182], the results for the IC50 in test [1] and in test [2] were less than 500 nM and less than 20000 nM, respectively.

For the molecule `Nc1ncccc1-c1nc2ccc(-c3ccccc3)nc2n1-c1ccc(CN(CC(F)(F)F)[C@H]2CC[C@@H](C(=O)O)CC2)cc1` (single isomer, unassigned) [Compound I-189, (1s,4s)-4-((4-(2-(2-aminopyridin-3-yl)-5-phenyl-3H-imidazo[4,5-b]pyridin-3-yl)benzyl)(2,2,2-trifluoroethyl)amino)cyclohexane-1-carboxylic acid], the values for the half-inhibitory concentration (IC50) in test [1] and in test [2] were not below 2000 nM and less than 20000 nM, respectively.

With `Nc1ncccc1-c1nc2ccc(-c3ccccc3)nc2n1-c1ccc(N2CCCC(C(=O)O)C2)nc1` (centres unmarked) [Compound I-28, 1-(5-(2-(2-aminopyridin-3-yl)-5-phenyl-3H-imidazo[4,5-b]pyridin-3-yl)pyridin-2-yl)piperidine-3-carboxylic acid], the IC50 was not below 2000 nM in test [1] and less than 20000 nM in test [2].
